Measured values: patent publication US20040018500A1, “Methods and systems for analyzing complex biological systems” (priority 2001, published 2004)

Experiments:
[1] = tested on: Saccharomyces cerevisiae wild type strain BY4743; experiment: AF1 combined gene expression and metabolite data mapped to KEGG reactions and pathways; assay type: cell-based
Description: In AF1, two different technologies were utilized: gene expression analysis (for examination of mRNA expression) and metabolite analysis. […] As noted previously, existing metabolic databases may be helpful in practicing the methods and systems of the present invention, but many databases include limitations that make their use in data analysis and pathway mapping less than straightforward. […] This caveat to KEGG makes it difficult to pinpoint the correct pathway when attempting to link a gene to a specific pathway. […] The pathway score indicates how meaningful the mapping is, or how likely it is to be correctly indicative of the pathway involved in the perturbation under examination. The method provides a pathway score based on perturbation levels of genes and/or compounds and the information content of each gene and/or compound in the pathway, i.e., a pathway score indicates the extent to which other pathways are mapped to a gene/compound. For example, imagine that two genes are perturbed in a particular experiment. One gene maps to only one pathway, giving a high degree of probability that the perturbed pathway is the one identified in the mapping. The second gene maps to three pathways. In the later example, there is only one-third the probability that the pathway identified in the mapping is the one perturbed. The present invention provides a method for calculating the pathway scores, so that more weight is given to a score of a gene or compound that maps to only one pathway than to a score of a gene or compound that maps to multiple pathways. […] Where n=the total number of genes in the pathway; ipath—count=the number of pathways containing a gene; and j=the number of genes in the pathway that are perturbed. Another factor to be considered when weighting a pathway score is the degree of perturbation. Degree of perturbation can be calculated, for example, based on a number of standard deviations from a norm, and included in an equation such as the one shown above, so that not only the number of pathways is taken into account, but also accounts for the amount of gene transcript or compound present as compared to a control. Compounds were also linked to pathways using the KEGG database. […] Of the 676 compounds under consideration, 77 were detected in the AF1 samples. […] The multiple mapping feature of KEGG makes it difficult to pinpoint the correct pathway when trying to link a compound to a specific pathway. […] A pathway score calculation is applied to the compounds to account for both information content (number of pathways a compound maps to) and perturbation level. The data were then combined to determine the number of reactions showing an enzyme and at least one compound perturbed, and to determine the number of pathways having at least one enzyme and one perturbed compound perturbed. The results of the analysis are represented in Tables 16 and 17, and were difficult to interpret, illustrating that the ability to draw conclusions from compound mapping to pathways is limited when absent additional data.

[2] = tested on: Saccharomyces cerevisiae wild type strain BY4743; experiment: AF1 metabolite analysis (GC-MS, LC-MS) of yeast treated with antifungal drugs; assay type: cell-based

OC(Cn1cncn1)(Cn1cncn1)c1ccc(F)cc1F [Fluconazole]
Number of Reactions Having an Enzyme and at Least One Compound Perturbed [1]: 2 | Fold Change of alanine ([2]; GC): 0.3084 | Fold Change of asparagine ([2]; GC): 0.3999 | Fold Change of aspartic acid ([2]; GC): 0.4337 | Fold Change of campesterol ([2]; GC): 0 | Fold Change of desmosterol ([2]; GC): 0 | Fold Change of disaccaride1 ([2]; GC): 0.3883 | Fold Change of disaccaride2 ([2]; GC): 0.1517 | Fold Change of disaccaride3 ([2]; GC): 0.5803 | Fold Change of ergosterol ([2]; GC): 0.948 | Fold Change of fucosterol ([2]; GC): 6.665 | Fold Change of glutamine ([2]; GC): 0.5242 | Fold Change of glycanopyrose ([2]; GC): 1.202 | Fold Change of glycerol ([2]; GC): 0.2187 | Fold Change of glycine ([2]; GC): −0.1037 | Fold Change of hexadecanoic acid ([2]; GC): 0.1343 | Fold Change of iso citric acid ([2]; GC): 0.3923 | Fold Change of isoleucine ([2]; GC): 0.391 | Fold Change of lanosterol ([2]; GC): 8.462 | Fold Change of leucine ([2]; GC): 0.3387 | Fold Change of lysine ([2]; GC): 0.3412 | Fold Change of malic acid ([2]; GC): 0.3975 | Fold Change of mevalonic acid lactone ([2]; GC): 0.2333 | Fold Change of octadecanoic acid ([2]; GC): 0.082 | Fold Change of oleic acid ([2]; GC): −0.3073 | Fold Change of ornithine2 ([2]; GC): 0.4473 | Fold Change of ornithine3 ([2]; GC): 0.2647 | Fold Change of palmiteliadic acid ([2]; GC): −0.08867 | Fold Change of phenylalanine ([2]; GC): 0.2774 | Fold Change of phosphate ([2]; GC): −0.508 | Fold Change of pyrimidine ([2]; GC): 0.2457 | Fold Change of abscisic acid ([2]; LC): 0 | Fold Change of adenosine ([2]; LC): 0 | Fold Change of glutamine/lysine ([2]; LC): 0.2242 | Fold Change of guanosine ([2]; LC): −0.9981 | Fold Change of 2-ketobutyric acid ([2]; nLC): −0.9992 | Fold Change of 2-ketoglutaric ([2]; nLC): −0.9995 | Fold Change of 3-indolylacetonitri ([2]; nLC): −0.9998 | Fold Change of 4-methylcatechol ([2]; nLC): 0 | Fold Change of 4aminobutyrate/dimg ([2]; nLC): 0.1384 | Fold Change of 5hydroxyLtryptophan ([2]; nLC): 0 | Fold Change of 6-benzylaminopurine ([2]; nLC): 0 | Fold Change of DLaminoadipic acid ([2]; nLC): 0.443 | Fold Change of NacetylDglucosamine ([2]; nLC): 0 | Fold Change of NacetylLglutamate ([2]; nLC): 0.1369 | Fold Change of NacetylLornithine ([2]; nLC): 0 | Fold Change of abscisic acid ([2]; nLC): 0 | Fold Change of aconitic acid ([2]; nLC): 0.6483 | Fold Change of adenine ([2]; nLC): 0 | Fold Change of adenosine ([2]; nLC): 0 | Fold Change of alanine ([2]; nLC): 0.399 | Fold Change of allantoic acid ([2]; nLC): 0.2392 | Fold Change of allantoin ([2]; nLC): 0.3942 | Fold Change of anthranilic acid ([2]; nLC): 0 | Fold Change of arginine ([2]; nLC): 0.6484 | Fold Change of argininosuccinate ([2]; nLC): 0 | Fold Change of asparagine ([2]; nLC): 0.3545 | Fold Change of aspartic ([2]; nLC): 0.4993 | Fold Change of benzoic acid ([2]; nLC): 0 | Fold Change of biotin ([2]; nLC): 0.3455 | Fold Change of caffeic acid ([2]; nLC): −0.4711 | Fold Change of catechol ([2]; nLC): 0 | Fold Change of cinnamic acid ([2]; nLC): 0 | Fold Change of citricanoic/itaconi ([2]; nLC): 0 | Fold Change of citrulline ([2]; nLC): 0 | Fold Change of coumaric acid ([2]; nLC): 0 | Fold Change of cytidine ([2]; nLC): −0.7969 | Fold Change of cytosine ([2]; nLC): 0 | Fold Change of decanoic acid ([2]; nLC): 0.1846 | Fold Change of diaminopimelic acid ([2]; nLC): 0 | Fold Change of dihydrofolic acid ([2]; nLC): 0 | Fold Change of estrone ([2]; nLC): 0 | Fold Change of farnesol ([2]; nLC): 0 | Fold Change of folic acid ([2]; nLC): 0 | Fold Change of fumaric/3m2oxobutan ([2]; nLC): 0.6009 | Fold Change of gallic acid ([2]; nLC): 0.5071 | Fold Change of gibberellic ([2]; nLC): 0 | Fold Change of giutamine/lysine ([2]; nLC): 0.3309 | Fold Change of glucosamine6PO4 ([2]; nLC): −0.9951 | Fold Change of glutamic/acetylseri ([2]; nLC): 0.3842 | Fold Change of guanine ([2]; nLC): 0
